Reference: patent US6500841B1, “Inhibitors of farnesyl-protein transferase” (Merck & Co., Inc., priority 1994, dated 2002)
pIC50: −log10 of the molar value.

What was measured:
[1] = target: Farnesyl-protein transferase (FTase) (UniProt P49354+P49356); assay: In vitro inhibition of Ras farnesyl transferase; assay type: biochemical; conditions: Ras-CVLS at 3.5 μM, 0.25 μM [3H]FPP; partially purified bovine or recombinant human enzyme; concentration giving 50% inhibition of FTase; read-out: Inhibition of RAS farnesylation, IC50
Method: Farnesyl-protein transferase (FTase) from bovine brain was chromatographed on DEAE-Sephacel (Pharmacia, 0-0.8 M NaCl gradient elution), N-octyl agarose (Sigma, 0-0.6 M NaCl gradient elution), and a mono Q HPLC column (Pharmacia, 0-0.3 M NaCl gradient). Ras-CVLS at 3.5 μM, 0.25 μM [^3H]FPP, and the indicated compounds were incubated with either a partially purified bovine enzyme preparation or a recombinant human enzyme preparation. The recombinant human enzyme was prepared as described in Omer, C. A., Kral, A. M., Diehl, R. E., Prendergast, G. C., Powers, S., Allen, C. M., Gibbs, J. B. and Kohl, N. E. (1993) Biochemistry 32:5167-5176. The Frase data presented below in Table 1 reflects the ability of the test compound to inhibit RAS farnesylation in vitro, as described in Pompliano, et al., Biochemistry 31, 3800 (1992).

[2] = tested on: Ras farnesylation in the v-ras cell line (viral Ha-ras p21); assay: cells; assay type: cell-based; conditions: v-ras cell line expressing viral Ha-ras p21; <1 = >50% inhibition at a 1 μM concentration
Method: The cell line used in this assay was the v-ras line, which expressed viral Ha-ras p21. The assay was performed essentially as described in DeClue, J. E. et. al., Cancer Research 51, 712-717, (1991). Cells in 10 cm dishes at 50-75% confluency were treated with the test compound (final concentration of solvent, methanol or dimethyl sulfoxide, was 0.1%). After 4 hours at 37° C., the cells were labelled in 3 ml methionine-free DMEM supplemeted with 10% regular DMEM, 2% fetal bovine serum and 400 μCi[^35S]methionine (1000 Ci/mmol). After an additional 20 hours, the cells were lysed in 1 ml lysis buffer (1% NP40/20 mM HEPES, pH 7.5/5 mM MgCl2/1 mM DTT/10 μg/ml aprotinen/2 μg/ml leupeptin/2 μg/ml antipain/0.5 mM PMSF) and the lysates cleared by centrifugation at 100,000×g for 45 min. Aliquots of lysates containing equal numbers of acid-precipitable counts were brought to 1 ml with IP buffer (lysis buffer lacking DTF) and immunoprecipitated with the ras-specific monoclonal antibody Y13-259 (Furth, M. E. et. al., J. Virol. 43, 294-304, (1982)). Following a 2 hour antibody incubation at 4° C., 200 μl of a 25% suspension of protein A-Sepharose coated with rabbit anti rat IgG was added for 45 min. The immunoprecipitates were washed four times with IP buffer ([…], pH 7.5/1 mM EDTA/1% Triton X-100.0.5% deoxycholate/0.1%/SDS/0.1 M NaCl) boiled in SDS-PAGE sample buffer and loaded on 13% acrylamide gels. When the dye front reached the bottom, the gel was fixed, soaked in Enlightening, dried and autoradiographed. The intensities of the bands corresponding to farnesylated and nonfarnesylated ras proteins were compared to determine the percent inhibition of farnesyl transfer to protein.

pIC50 [1] | pIC50 [2] | Structure (SMILES)
6.17 | 6.60 | CCC(C)[C@@H](CN1Cc2ccccc2C[C@H]1C(=O)N[C@@H](CCSC)C(=O)OC)NC[C@@H](N)CS (stereo partly drawn) [Compound 1, N-[N′-[2(S)-(2(R)-amino-3-mercaptopropylamino)-3(S)-methylpentyl]-1,2,3,4-tetrahydro-3(S)-isoquinolinecarboxyl]-methionine methyl ester]
9.41 |  | CCC(C)[C@@H](CN1Cc2ccccc2C[C@H]1C(=O)N[C@@H](CCSC)C(=O)O)NC[C@@H](N)CS (stereo partly drawn) [Compound 2, N-[N′-[2(S)-(2(R)-amino-3-mercaptopropylamino)-3(S)-methylpentyl]-1,2,3,4-tetrahydro-3(S)-isoquinolinecarboxyl]-methionine]
7.00 | 6.60 | CC[C@H](C)[C@@H](CN1CCC[C@H]1C(=O)N[C@@H](CCSC)C(=O)OC)NC[C@@H](N)CS [Compound 3, N-[2(S)-(2(R)-amino-3-mercaptopropylamino)-3(S)-methylpentyl]-prolyl-methionine methyl ester]
7.77 | 5.00 | CC[C@H](C)[C@@H](CN1CCC[C@H]1C(=O)N[C@@H](CCSC)C(=O)O)NC[C@@H](N)CS [Compound 4, N-[2(S)-(2(R)-amino-3-mercaptopropylamino)-3(S)-methylpentyl]-prolyl-methionine]
6.28 | > 6.00 | CC[C@H]1CCN(C[C@@H](NC[C@@H](N)CS)[C@@H](C)CC)[C@@H]1C(=O)N[C@@H](CCSC)C(=O)OC [Compound 5, N-[2(S)-(2(R)-amino-3-mercaptopropylamino)-3(S)-methylpentyl]-trans-3-ethyl-prolyl-methionine methyl ester]
8.00 |  | CC[C@H]1CCN(C[C@@H](NC[C@@H](N)CS)[C@@H](C)CC)[C@@H]1C(=O)N[C@@H](CCSC)C(=O)O [Compound 6, N-[2(S)-(2(R)-amino-3-mercaptopropylamino)-3(S)-methylpentyl]-trans-3-ethyl-prolyl-methionine]
5.64 | 6.00 | CC[C@@H]1CCN(C[C@@H](NC[C@@H](N)CS)[C@@H](C)CC)[C@@H]1C(=O)N[C@@H](CCSC)C(=O)OC [Compound 7, N-[2(S)-(2(R)-amino-3-mercaptopropylamino)-3(S)-methylpentyl]-cis-3-ethyl-prolyl-methionine methyl ester]
8.38 |  | CC[C@@H]1CCN(C[C@@H](NC[C@@H](N)CS)[C@@H](C)CC)[C@@H]1C(=O)N[C@@H](CCSC)C(=O)O [Compound 8, N-[2(S)-(2(R)-amino-3-mercaptopropylamino)-3(S)-methylpentyl]-cis-3-ethyl-prolyl-methionine]
6.02 | < 5.00 | CC[C@H](C)[C@@H](CN1CCC[C@H]1C(=O)N[C@@H](CCS(C)(=O)=O)C(=O)OC)NC[C@@H](N)CS [Compound 9, N-[2(S)-(2(R)-amino-3-mercaptopropylamino)-3(S)-methylpentyl]-prolyl-methionine sulfone methyl ester]
7.46 |  | CCC(C)C(CN1CCCC1C(=O)NC(CCS(C)(=O)=O)C(=O)O)NCC(N)CS [Compound 10, N-[2(S)-(2(R)-amino-3-mercaptopropylamino)-3(S)-methylpentyl]-prolyl-methionine sulfone]
6.41 | < 5.00 | CCC(C)[C@@H](CN1Cc2ccccc2C[C@H]1C(=O)N[C@H]1CCOC1=O)NC[C@@H](N)CS (stereo partly drawn) [Compound 13, N-[N′-[2(S)-(2(R)-amino-3-mercaptopropylamino)-3(S)-methylpentyl]-1,2,3,4-tetrahydro-3(S)-isoquinolinecarboxyl]-homoserine lactone]
8.12 |  | CCC(C)[C@@H](CN1Cc2ccccc2C[C@H]1C(=O)N[C@@H](CCO)C(=O)O)NC[C@@H](N)CS (stereo partly drawn) [Compound 14, N-[N′-[2(S)-(2(R)-amino-3-mercaptopropylamino)-3(S)-methylpentyl]-1,2,3,4-tetrahydro-3(S)-isoquinolinecarboxyl]-homoserine]
5.85 | 4.30 | CCC(C)C(CN1CCCC1C(=O)NC1CCOC1=O)NCC(N)CS [Compound 15, N-[2(S)-(2(R)-amino-3-mercaptopropylamino)-3(S)-methylpentyl]-prolyl-homoserine lactone]
7.35 |  | CC[C@H](C)[C@@H](CN1CCC[C@H]1C(=O)N[C@@H](CCO)C(=O)O)NC[C@@H](N)CS [Compound 16, N-[2(S)-(2(R)-amino-3-mercaptopropylamino)-3(S)-methylpentyl]-prolyl-homoserine]
4.62 |  | CCC(C)C(CN1CCCCC1C(=O)NC1CCOC1=O)NCC(N)CS [Compound 17, N-[2(S)-(2(R)-amino-3-mercaptopropylamino)-3-methylpentyl]-2(S)-pipecolyl-homoserine lactone]
5.00 |  | CCC(C)C(NCC(N)CS)C(=O)N1CCCC1C(=O)NC1CCOC1=O [Compound 19, N-[2(R)-amino-3-mercaptopropyl]-isoleucyl-prolyl-homserine lactone]
6.46 |  | CCC(C)C(NCC(N)CS)C(=O)N1CCCC1C(=O)NC(CCO)C(=O)O [Compound 20, N-[2(R)-amino-3-mercaptopropyl]-isoleucyl-prolyl-homserine]
4.60 |  | CCC(C)C(NCC(N)CS)C(=O)N1CCCCC1C(=O)NC1CCOC1=O [Compound 21, N-[2(R)-amino-3-mercaptopropyl]-isoleucyl-2(S)-pipecolyl-homserine lactone]
6.47 |  | CCC(C)C(NCC(N)CS)C(=O)N1CCCCC1C(=O)NC(CCO)C(=O)O [Compound 22, N-[2(R)-amino-3-mercaptopropyl]-isoleucyl-2(S)-pipecolyl-homserine]
5.92 | > 6.00 | CCC(C)C(CN1CCCC1C(=O)NC(CCSC)C(=O)OC)N(C)CC(N)CS [Compound 23, N-[2(S)-(2(R)-amino-3-(mercaptopropyl)methylamino)-3(S)-methylpentyl]-prolyl-methionine methyl ester]
8.22 |  | CCC(C)C(CN1CCCC1C(=O)NC(CCSC)C(=O)O)N(C)CC(N)CS [Compound 24, N-[2(S)-(2(R)-amino-3-(mercaptopropyl)methylamino)-3(S)-methylpentyl]-prolyl-methionine]
5.00 |  | CCC(C)C(CN1CCCC1C(=O)NC(CCS(C)(=O)=O)C(=O)OC)N(C)CC(N)CS [Compound 25, N-[2(S)-(2(R)-amino-3-(mercaptopropyl)methylamino)-3(S)-methylpentyl]-prolyl-methionine sulfone methyl ester]
7.25 |  | CCC(C)C(CN1CCCC1C(=O)NC(CCS(C)(=O)=O)C(=O)O)N(C)CC(N)CS [Compound 26, N-[2(S)-(2(R)-amino-3-(mercaptopropyl)methylamino)-3(S)-methylpentyl]-prolyl-methionine sulfone]
